From patent US11591298B2, “Bisaminoquinoline compounds, pharmaceutical compositions prepared therefrom and their use” (THE TRUSTEES OF THE UNIVERSITY OF PENNSYLVANIA, priority 2011, dated 2023)
pIC50: −log10 of the molar value.

Columns and labels:
LN229 GFP-LC3 cells = assay: GFP-LC3 puncta imaging in LN229 GFP-LC3 cells; format: cell-based, human; details: for GFP-LC3 punctate fluorescence: within 4 hours
Method: Autophagy inhibition and cytotoxicity of Lys01 compared to HCQ (4A) Representative images of LN229 GFP-LC3 cells treated as indicated for 4 hours. White arrows: small puncta; red arrows: dense puncta. Graphs show mean+/−SEM puncta/cell. (4B) Representative electron micrographs of LN229-GFP-LC3 cells treated (4 hours) with DMSO, HCQ 10 μM, or Lys01 10 μM Arrows: Autophagic vesicles. (4C) LC3 immunoblotting of LN229 cells treated for 24 hours an indicated; calculated ratio of LC3II/LC3I ratios for bafilomycin versus control co-treatment. […] Values presented are means+/−SEM with 5 replicates per treatment.
To determine if Lys01 treatment was inducing production of new autophagic vesicles (an autophagy inducer) or blocking the clearance of autophagy vesicles (an autophagy inhibitor), a bafilomycin clamp experiment was performed (FIG. 4C). LN229 GFP-LC3 cells were treated with DMSO, rapamycin, HCQ 10 μM, and Lys01 10 μM, in the absence or presence of bafilomycin.

P. falciparum = P. falciparum strains grown in vitro in human RBC (Table 2, FIG. 17); format: cell-based; details: some CQ-resistant cell lines; values only in FIG. 17
From the text: FIG. 17, Table 2 provides IC50 (M) values of a number of compounds according to the present invention in P. falciparum.
There is a similar activity profile for anticancer activity of Lys01 derivatives and malaria cytotoxicity.

HCC827 = assay: Cell death after 24 hours in HCC827 cells; format: cell-based; details: 10 μM
[1] = tested on: LC3II/LC3I ratio in LN229 cells; assay: LC3 immunoblotting (LC3II/LC3I ratio) in LN229 cells; format: cell-based, human; details: concentration of 10 μM, 4 hours
Method: FIG. 3. Effects of Lys01-Lys04 on LC3 immunoblotting Immunoblotting and quantification of LC3II/LC3I ratio in lysates from LN229 cells treated for 4 hours. The graphs show (mean+/−SD) LC3II/LC3I ratios of each treatment normalized to the LC3II/LC3I ratio of control treated cells for each experiment.
LN229 (human glioblastoma) were treated with Lys01 and derivatives Lys02, Lys03, Lys04, HCQ and CQ. […] LC3 is a ubiquitin-like protein which exists as an unconjugated form (LC3I) or conjugated to AV membranes (LC3II) (25). The ratio of LC3II/LC3I reflects the accumulation of AV in cells, and therefore effective autophagy inhibition.

1205Lu = assay: Cell death after 24 hours in 1205Lu cells; format: cell-based; details: 10 μM
c8161 cells [2] = assay: Immunoblotting against LC3 and p62 in c8161 cells; format: cell-based; details: Lys01 versus Lys05
Method: (§1) FIGS. 5A, 5B. […] (5A) Immunoblotting against LC3 and p62 in c8161 cells treated as indicated (5B) MTT assay in c8161 cells at 72 hours. HCQ: Hydroxychloroquine.
(§2) Lys05, the trihydrochloride salt of Lys01 was synthesized to enhance aqueous solubility and to enable in vivo studies. […] To investigate the safety of Lys05 and its in vivo effects on autophagy, c8161 xenografts matched for tumor size were treated with intraperitoneal (i.p.) daily PBS, or equimolar doses of HCQ or Lys05 (HCQ 60 mg/kg (138 nmoles/g), Lys05 76 mg/kg (138 nmoles/g)) for 48 hours. […] After 48 hours of treatment mice were euthanized, and tumors were processed for electron microscopy (EM).

[3] = tested on: LN229 (glioma), 1205Lu (melanoma), HT-29 (colon) and c8161 (melanoma) cells; assay: MTT assay (72 hours) in 4 cell lines; format: cell-based; details: range over the 4 cell lines tested
Method: FIGS. 4A, 4B, 4C, 4D. […] White arrows: small puncta; red arrows: dense puncta. Graphs show mean+/−SEM puncta/cell. (4B) Representative electron micrographs of LN229-GFP-LC3 cells treated (4 hours) with DMSO, HCQ 10 μM, or Lys01 10 μM Arrows: Autophagic vesicles. (4C) LC3 immunoblotting of LN229 cells treated for 24 hours an indicated; calculated ratio of LC3II/LC3I ratios for bafilomycin versus control co-treatment. […] (4D) MTT assay (72 hours) for 4 cell lines. Red: Lys01, Blue: Lys02, Purple: Lys03 Green: Lys04 Orange: HCQ. Values presented are means+/−SEM with 5 replicates per treatment.
The MTT assay was used to assess viable cells at 72 hours.

[4] = tested on: LN229 (human glioblastoma); assay: Cell death of cultured LN229 cells; format: cell-based; details: concentrations of 10 μM or higher, between 4-24 hours
c8161 cells [5] = assay: MTT assay in c8161 cells at 72 hours; format: cell-based; details: Lys01 versus Lys05
Method: as §1, §2

CN(CCNc1ccnc2cc(Cl)ccc12)CCNc1ccnc2cc(Cl)ccc12 [Lys01]
GFP-LC3 punctate fluorescence (LN229 GFP-LC3 cells; 1 μM): numerous small puncta | increase in GFP-LC3 puncta per cell, 10 μM Lys01 compared to 10 μM HCQ (LN229 GFP-LC3 cells; 10 μM, 4 hours): 5 fold | GFP-LC3 punctate fluorescence (LN229 GFP-LC3 cells; 10 μM): dense puncta | cell death (LN229 GFP-LC3 cells; 100 μM): dead by 4 hours | average number of vesicles per cell (LN229 GFP-LC3 cells; Lys01 10 μM versus 100 μM HCQ): higher than in cells treated with 100 μM HCQ | IC50, activity compared to artesunate (P. falciparum): more active than artesunate | cell death (HCC827): Near complete cell death | potency as autophagy inhibitor relative to HCQ or CQ (LC3 immunoblotting) [1]: > 10 fold | cell death (1205Lu): Near complete cell death | LC3II/LC3I ratio (c8161 cells [2]): equivalent dose-dependent increases | autophagy cargo protein p62 (c8161 cells [2]): accumulation | pIC50 [3]: 5.10 to 5.40 | cell death of cultured cells [4]: Near complete cell death | IC50 values in the MTT assay (c8161 cells [5]): identical
